Experiment: In vivo perfused liver: absorption from portal vein blood and excretion into the bile
Set-up: species or system rat
Settings: after W-X-G (Example 67)
Method: In order to investigate a selective absorption of bile acid derivatives into the liver and their hepatotropic action, the appropriate derivatives were injected as a bolus into a mesenteric vein of anesthetized rats and the excretion of these derivatives and the corresponding active compounds or active compound metabolites into the bile was analysed.
Male Sprague-Dawley rats (300-500 g bodyweight) had their food withdrawn and received water ad libitum. After tracheotomy, the abdomen was opened by median section under urethane anesthesia ([…] i.m. urethane 30%). The pylorus was ligated and the bile duct was cannulated by advancing a polyethylene tube (d=0.05 mm) up to the liver and the bile was drained. The volume of secretion was measured at 15 minute intervals. After a preliminary period of 60 minutes, the substances (0.5 ml of a 1 mM solution in 0.9% NaCl solution) were administered into a mesenteric vein in the course of 30 sec and the bile was collected at prestated time intervals (2, 4, 6, 8, 10, 15, 20, 30, 40, 50, 60, 70, 80, 90, 100, 110 and 120 min). The bile acid derivative was administered first, and the appropriate active compound was administered after a collection period of 2 hours. 120 min after administration of test substance, the bladder volume was measured and the urine was also collected. The bile and urine samples were stored on ice during the experiment and then deep-frozen.
Each 10 μl bile sample was applied to TLC plates (10×20 cm, silica gel 60 specific layer thickness 0.25 mm, No. 37581 Riedel de Haen, Seelze, Federal Republic of Germany) using Microcaps (Drummond, Broomall, USA) and the thin-layer plates were dried in the air for 20 min.
The plates were developed in the following mobile phases: Substance Mobile phase
The constituents of the mobile phases were bought from the usual manufacturers in the highest possible purity grade. After developing and drying the plates, the distribution of the active compounds and the bile acid derivatives, or their metabolites, was determined by densitometry (CD 50 densitometer, DESAGA; Heidelberg). Detection was carried out in reflection mode with linear sampling at the wavelengths 252 nm (chlorambucil/chlorambucil conjugate) or 260 nm (remaining substances).
In order to evaluate the chromatograms, the relative intensity of the bile acid derivatives, the active compounds or the active compound metabolites on a chromatogram was given in surface area units.

C[C@H](CCC(=O)NCCS(=O)(=O)O)[C@H]1CC[C@H]2[C@@H]3[C@H](O)C[C@@H]4C[C@@H](OCCNC(=O)CCCc5ccc(N(CCCl)CCCl)cc5)CC[C@]4(C)[C@H]3C[C@H](O)[C@]12C [Example 67]
(2) Conc. W-X-G in bile (bile at 2 min): 1207 surface area units
Total (1) + (2) (bile at 2 min): 1207 surface area units
(2) Conc. W-X-G in bile (bile at 4 min): 17803 surface area units
Total (1) + (2) (bile at 4 min): 17803 surface area units
(2) Conc. W-X-G in bile (bile at 6 min): 21762 surface area units
Total (1) + (2) (bile at 6 min): 21762 surface area units
(2) Conc. W-X-G in bile (bile at 8 min): 27280 surface area units
Total (1) + (2) (bile at 8 min): 27280 surface area units
(2) Conc. W-X-G in bile (bile at 10 min): 27346 surface area units
Total (1) + (2) (bile at 10 min): 27346 surface area units
(2) Conc. W-X-G in bile (bile at 15 min): 16673 surface area units
Total (1) + (2) (bile at 15 min): 16673 surface area units
(2) Conc. W-X-G in bile (bile at 20 min): 10748 surface area units
Total (1) + (2) (bile at 20 min): 10748 surface area units
(2) Conc. W-X-G in bile (bile at 30 min): 5375 surface area units
Total (1) + (2) (bile at 30 min): 5375 surface area units
(2) Conc. W-X-G in bile (bile at 40 min): 1273 surface area units
Total (1) + (2) (bile at 40 min): 1273 surface area units
(2) Conc. W-X-G in bile (bile at 50 min): 828 surface area units
Total (1) + (2) (bile at 50 min): 828 surface area units
(2) Conc. W-X-G in bile (bile at 60 min): 633 surface area units
Total (1) + (2) (bile at 60 min): 633 surface area units
(2) Conc. W-X-G in bile (bile at 70 min): 826 surface area units
Total (1) + (2) (bile at 70 min): 826 surface area units
(2) Conc. W-X-G in bile (bile at 80 min): 635 surface area units
Total (1) + (2) (bile at 80 min): 635 surface area units
(2) Conc. W-X-G in bile (bile at 90 min): 638 surface area units
Total (1) + (2) (bile at 90 min): 638 surface area units
(2) Conc. W-X-G in bile (bile at 100 min): 559 surface area units
Total (1) + (2) (bile at 100 min): 559 surface area units
(2) Conc. W-X-G in bile (bile at 110 min): 408 surface area units
Total (1) + (2) (bile at 110 min): 408 surface area units
(2) Conc. W-X-G in bile (bile at 120 min): 383 surface area units
Total (1) + (2) (bile at 120 min): 383 surface area units

From patent US5462933A, “Modified bile acid conjugates, and their use as pharmaceuticals” (Hoechst Aktiengesellschaft, priority 1989, dated 1995)
